Measured values from PMC12635268, “Novel antimicrobial peptides and peptide-microbiome crosstalk in Appalachian salamander skin” (NPJ Biofilms and Microbiomes, 2025).
Read-outs that look alike come from different tables or passages of the source.

Legend:
Assay in all cases: microbe, parasite or virus in culture
[1] = system: E. coli ATCC 43888; details: for Bacterial MIC: E. coli 43888; for MIC: Escherichia coli
Procedure, shortened: (§1)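 Peptides tested 0.25–128 μg/mL (2-fold dilutions, TFA/BSA carrier) against 1 × 10⁵ CFU/mL inoculum in CAMHB, duplicates.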

[2] = system: E. cloacae ATCC 13047; details: for Bacterial MIC: E. cloacae 13047; for MIC: Enterobacter cloacae
Procedure, shortened: as §1

[3] = system: A. baumannii ATCC 17978; details: for Bacterial MIC: A. baumannii 17978; for MIC: Acinetobacter baumannii
Procedure, shortened: as §1

C[C@H]1COc2c(N3CCN(C)CC3)c(F)cc3c(=O)c(C(=O)O)cn1c23 [Levofloxacin, reference compound]
≤ 0.25 µg/mL: MIC ([1]; ATCC43888, read-out: Bacterial MIC) | MIC ([2]; ATCC13047, read-out: Bacterial MIC) | MIC ([3]; ATCC17978, read-out: Bacterial MIC)
0.25 µg/mL: MIC ([1]; ATCC43888, 20 h) | MIC ([2]; ATCC13047, 20 h) | MIC ([3]; ATCC17978, 20 h)
<= 0.250 µg/mL: Bacterial MIC ([1]; Historical run 15NOV23) | Bacterial MIC ([1]; Historical run 19APRIL23) | Bacterial MIC ([1]; Historical run 22NOV23) | Bacterial MIC ([1]; Week 2 (12/14/2023)) | Bacterial MIC ([2]; Historical run 15NOV23) | Bacterial MIC ([2]; Historical run 19APRIL23) | Bacterial MIC ([2]; Historical run 22NOV23) | Bacterial MIC ([2]; Week 2 (12/14/2023)) | Bacterial MIC ([3]; Historical run 15NOV23) | Bacterial MIC ([3]; Historical run 19APRIL23) | Bacterial MIC ([3]; Historical run 22NOV23) | Bacterial MIC ([3]; Week 2 (12/14/2023))
